Test results: US12350308B2, “Phosphorylcholine conjugates and uses thereof” (TPCERA LTD., priority 2013, dated 2025)
Where no end group is shown, it is not given here.

Experiments:
[1] = system: Tregs CD4+CD25+FOXP3+; assay: T regulatory cell profiling by FACS in splenocytes of lupus mice (PC-tuftsin study); type: in vivo; settings: PBS 4±0.6 percent
Procedure: Mice, from age of 14 weeks, received subcutaneously PC-tuftsin at the concentration of 50 μg/0.1 ml per mouse (treatment; n=10) or PBS (control; n=10), three times a week. In the cytokines studies, the relative mRNA expression levels of pro-inflammatory cytokine IFNγ and anti-inflammatory cytokine TGFβ were analyzed by real time RT-PCR using LightCycler (Roche). Total RNA was isolated from splenocytes and was reverse-transcribed into cDNA by using Moloney Murine Leukemia Virus Reverse Transcriptase (Promega). The resulting cDNA was subjected to real-time RT-PCR in the presence of specific primers, according to the manufacturer's instructions (Table 2). The relative expression levels of IFNγ and TGFβ were normalized to β-actin levels.
Finally, a T regulatory cell (Tregs) profiling assay was performed in isolated splenocytes incubated with the following antibodies: anti-CD4^+FITC, anti-CD25^+APC and anti-FOXP3^+PE (eBioscience) and analyzed by FACS. Forward and side scatter gates adjusted to include all cells and to exclude debris (Becton Dickinson). Cells were gated on CD4+ cells, and for intracellular staining, the cells were incubated with a fixation solution, washed and resuspended in permeabilization solution (Serotec). Isotype control was used as reference.

[2] = system: CD4+CD25+FOXP3+ Tregs; assay: Treg expansion in spleen cells of lupus mice treated with TD-PC (FACS); type: in vivo; settings: gating on CD4+ T cells; PBS 4%
Text: The percentage of CD4+CD25+FOXP3+ Tregs phenotype subset in spleen cells following treatment with TD-PC, tuftsin derivative (SEQ ID NO: 25), PC or PBS, is elucidated in FIGS. 25A-25B.

[3] = system: splenocytes of NZBW/F1 female mice; assay: Cytokine secretion in-vitro by splenocytes of lupus mice treated with TD-PC; type: in vivo; settings: vs PBS; for IL-17 secretion from splenocytes: in vitro; for IL-10 secretion by splenocytes / TGFβ production by splenocytes / reduction of splenocyte secretion of IFNγ: in-vitro
Procedure: NZBW/F1 female mice having lupus were treated with TD-PC (SEQ ID NO: 25 conjugated to PC) or the corresponding control treatments. Mice were sacrificed at week 30, and their splenocytes were studied in-vitro for the expression of pro-inflammatory cytokines (IFNγ, IL-17) and anti-inflammatory (TGFβ, IL-10) cytokines using RT-PCR. […] In contrast, TD-PC increased the mRNA expression of the anti-inflammatory cytokine TGFβ in the (p<0.001) compared to the mRNA expressed by splenocytes derived from PBS-treated mice (FIG. 24A).
However, a prominent increase in anti-inflammatory cytokines (TGFβ, IL-10) secretion in-vitro by splenocytes derived from TD-PC treated mice is illustrated in FIG. 24B. […] IFNγ secretion upon tuftsin derivative (SEQ ID NO: 25) or PC treatments was reduced by 2.5 and 1.5 times respectively (p<0.03 and p<0.04, respectively).

[4] = system: NZBxW/F1 lupus mice; assay: Circulating anti-dsDNA antibodies in lupus mice treated with TD-PC (ELISA); type: in vivo; settings: sera at 30 weeks, dilution 1:800; between groups incl. PBS
Procedure: Titers of circulating anti-dsDNA antibodies in the sera of control and treated mice were monitored during the development of lupus, and their levels were measured every 3 weeks. […] FIG. 23 presents the anti dsDNA antibodies titers in the sera at the age 30 weeks at a dilution of 1:800.

[5] = system: DBA/1 CIA mice; assay: Arthritis score in mice with established CIA (treatment from day 16); type: in vivo; settings: for mean arthritis score: day 35, s.c. 3 times a week, PBS 13.8±0.45; for average arthritis score: time 0 (treatment initiation, day 16 after disease induction), baseline
Text: Rheumatoid Arthritis is a progressive joint deformation disease caused by severe inflammation. CIA mice were subjected to subcutaneous injections of TD-PC, tuftsin derivative (SEQ ID NO: 25), PC, a mix of TD and PC, or PBS, 3 times a week. […] Treatment started as day 16 after disease induction when disease symptoms were already notable. […] The significant reduction in arthritis score was illustrious from day 7 after treatment administration and lasted until day 35 (the day mice were sacrificed).

[6] = system: IL-10+CD25+CD1d+ Breg cells; assay: Breg expansion in splenocytes of mice with established CIA (FACS); type: in vivo; settings: isolated splenocytes; PBS 0.4%
Procedure: The mean percentage of Breg cells in isolated splenocytes following treatment with TD-PC, PBS, TD (SEQ ID NO: 25), PC, TD+PC and None was measured within IL-10+CD25+CD1d+ subset. […] Representative data of IL-10+CD25+CD1d+ levels in splenocytes derived from TD-PC, PBS, TD (SEQ ID NO: 25), PC and TD+PC treated mice gating on IL-10+ B cells, are presented in FIG. 34A.

[7] = system: NZBxW/F1 lupus mice; assay: Survival of lupus mice treated with TD-PC (Kaplan-Meier); type: in vivo; settings: already at week 24
Procedure: A main complication of lupus nephritis is a short survival time due to severe kidney failure. Therefore, the survival time of mice treated either with TD-PC or with PC, tuftsin derivative (SEQ ID NO: 25) or PBS (control) was analyzed.

[8] = system: female NZBxW/F1 lupus prone mice; assay: Proteinuria onset and immune complex deposits in lupus prone mice treated with TD-PC; type: in vivo; settings: s.c., prophylactic from week 14
Text: To examine the potential protective effect of TD-PC (SEQ ID NO: 25 conjugated to PC), female NZBxW/F1 lupus prone mice received subcutaneous injections (s.c) of the TD-PC conjugate, phosphorylcholine (PC), tuftsin derivative (SEQ ID NO: 25) or PBS (control) via a prophylactic protocol starting at week 14, before the clinical onset of lupus (n ¼ 15 per group).

[9] = system: splenocytes derived from CIA mice; assay: Cytokine secretion in-vitro by splenocytes of mice with established CIA; type: in vivo; settings: splenocyte culture fluids; for mean IL-10 level: PBS 298; for mean IL-6 level: PBS 840; for mean IL-1β level: PBS 883; for mean TNF-α level: PBS 1073; for mean IL-17 level: PBS 2170
Procedure: Secretion, in-vitro, of pro-inflammatory and anti-inflammatory cytokines by splenocytes derived from CIA mice treated with TD-PC, PBS, TD, PC, TD+PC or untreated mice was evaluated (FIGS. 32A-32D). The following cytokines secretions were examined: pro-inflammatory IL-1β (FIG. 32A), IL-17 (FIG. 32B), IL-6 (FIG. 32C), TNF-α (FIG. 32D) and anti-inflammatory IL-10 (FIG. 32E).

[10] = system: CD4+CD25+FOXP3+ Treg cells; assay: Treg expansion in splenocytes of mice with established CIA (FACS); type: in vivo; settings: isolated splenocytes; PBS 1.4%
Text: The frequency of CD4+CD25+FOXP3+ Treg cells subset in isolated splenocytes from mice treated with TPC, PBS, TD (SEQ ID NO: 25), PC, TD+PC or untreated is elucidated in FIGS. 33A and 33B. […] Representative data of the CD4+CD25+FOXP3+ levels in splenocytes derived from TD-PC, PBS, TD (SEQ ID NO: 25), PC and TD+PC treated mice and the untreated group, gating on CD4+ T cells are presented in FIG. 33B.

[11] = Dagan S et al., 1987; cited from earlier work

Compound | enhancement in Tregs CD4+CD25+FOXP3+ expression level [1] | CD4+CD25+FOXP3+ Tregs in spleen cells [2] [%] | IL-17 secretion from splenocytes [3] | IL-10 secretion by splenocytes [3] | TGFβ production by splenocytes [3] | reduction of splenocyte secretion of IFNγ [3] [times] | titers of circulating anti-dsDNA antibodies [4] | mean arthritis score [5] | average arthritis score [5] | mean percentage of IL-10+CD25+CD1d+ Breg cells [6] | percentage of death number vs PBS injected mice [7] | immune complex (IC) deposits in the mesangium / nephritis class [8] | mean IL-10 level [9] [pg/mL] | mean IL-6 level [9] [pg/mL] | mean IL-1β level [9] [pg/mL] | mean TNF-α level [9] [pg/mL] | mean IL-17 level [9] [pg/mL] | mean percentage of CD4+CD25+FOXP3+ Treg cells [10] [%] | effect on disease progression [11]
threonine-lysine-proline-arginine [tuftsin] | did not cause any significant elevation |  |  |  |  |  |  |  |  |  |  |  |  |  |  |  |  |  | 
TKPRGY [TD] |  | 8 | Less significant inhibition | increased IL-10 secretion by splenocytes in-vitro but less significant | moderately enhanced | 2.5 | No statistically significant change | 13.8±0.45 | 4.6±1.5 | 0,5% | significant difference | moderate but not significant effect | 304 | 778 | 896 | 1079 | 2217 | 0.52 | 
C[N+](C)(C)CCOP(=O)(O)O [PC, phosphorylcholine] | did not cause any significant elevation | 3 | to a lower extent | did not have any effect | minimal effect | 1.5 | No statistically significant change | 14±0 | 3.4±1.1 | 0.44% | significant difference | did not diminish the development of strong mesangial damage | 300 | 795 | 860 | 1048 | 2179 | 0.81 | inhibitory effect
